Test results taken from the supplement of paper PMC10307832.

Legend:
Test in all cases: relative viability (nuclei count vs DMSO), 5 days (fraction); higher = more cells survive
[1] = compound: CCC1=CN=CN=C1N2CCN(CC2)CC3=NC4=C(N3)C=C(C=C4)C(F)(F)F + Cc1nc(Nc2ncc(C(=O)Nc3c(C)cccc3Cl)s2)cc(N2CCN(CCO)CC2)n1 [Dasatinib] (partner 0.075 µM)
Procedure, shortened: (§1)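 After 5 days of treatment, lung cancer cells in 1536-well plates were fixed and stained in a single step (final 0.05% Triton X-100, 1% formaldehyde, 1 ug/ml Hoechst) and their nuclei counted on 4× images. Treatment had been applied by pin tool the day after seeding as one drug alone or as a fixed anchor-drug dose with five library-drug doses (not always all listed) in √10 steps. Relative viability is the nuclei count of treated wells divided by that of vehicle wells, and values are medians of duplicate plates.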

[2] = compound: N=C1NC(=O)/C(=C/c2ccc(O)cc2)S1 [Mirin] + CS(=O)(=O)CCNCc1ccc(-c2ccc3ncnc(Nc4ccc(OCc5cccc(F)c5)c(Cl)c4)c3c2)o1 [Lapatinib] (partner 2 µM)
Procedure, shortened: as §1

[3] = compound: CCn1c(-c2nonc2N)nc2cnc(Oc3cccc(NC(=O)c4ccc(OCCN5CCOCC5)cc4)c3)cc21 + Cc1nc(Nc2ncc(C(=O)Nc3c(C)cccc3Cl)s2)cc(N2CCN(CCO)CC2)n1 [Dasatinib] (partner 0.075 µM)
Procedure, shortened: as §1

[4] = compound: N=C1NC(=O)/C(=C/c2ccc(O)cc2)S1 [Mirin] + N=C(N)NC(=N)NCCc1ccccc1 [Phenformin] (partner 250 µM)
Procedure, shortened: as §1

Cell Line	relative viability ([1]; first compound 0.04 µM)	relative viability ([1]; first compound 0.1265 µM)	relative viability ([1]; first compound 0.4 µM)	relative viability ([1]; first compound 1.265 µM)	relative viability ([1]; first compound 4 µM)	relative viability ([2]; first compound 0.25 µM)	relative viability ([2]; first compound 0.7906 µM)	relative viability ([2]; first compound 2.5 µM)	relative viability ([2]; first compound 7.906 µM)	relative viability ([2]; first compound 25 µM)	relative viability ([3]; first compound 0.04 µM)	relative viability ([3]; first compound 0.1265 µM)	relative viability ([3]; first compound 0.4 µM)	relative viability ([3]; first compound 1.265 µM)	relative viability ([3]; first compound 4 µM)	relative viability ([4]; first compound 0.25 µM)	relative viability ([4]; first compound 0.7906 µM)	relative viability ([4]; first compound 2.5 µM)	relative viability ([4]; first compound 7.906 µM)	relative viability ([4]; first compound 25 µM)
NCI-H1355	0.761	0.631	0.621	0.657	0.735	1.01	0.961	1.01	1.1	1.11	0.755	0.712	0.235	0.312	0.275	0.472	0.463	0.456	0.47	0.521
EKVX	0.558	0.484	0.527	0.491	0.415	0.213	0.192	0.23	0.215	0.256	0.565	0.277	0.434	0.457	0.427	0.251	0.238	0.246	0.224	0.258
NCI-H460	0.583	0.467	0.544	0.472	0.541	1.05	1.01	1.06	0.836	0.631	0.467	0.288	0.154	0.136	0.112	0.551	0.485	0.5	0.522	0.623
NCI-H1975	0.402	0.435	0.385	0.325	0.293	1.12	0.785	0.883	1.02	0.757	0.309	0.268	0.186	0.18	0.142	0.448	0.375	0.452	0.452	0.425
HCC-78	0.327	0.416	0.374	0.316	0.363	0.921	0.761	0.837	0.774	0.552	0.428	0.474	–	0.4	0.428	0.661	0.616	0.867	0.571	0.793
NCI-H2085	0.233	0.245	0.303	0.218	0.251	0.828	0.791	0.823	0.807	0.628	0.307	0.308	0.396	0.251	0.223	0.804	0.756	0.749	0.655	0.654
H3255	0.308	0.294	0.347	0.367	0.317	0.25	0.307	0.236	0.241	0.218	0.375	0.367	0.331	0.341	0.291	0.33	0.379	0.408	0.271	0.361
NCI-H2126	0.589	0.593	0.535	0.516	0.485	0.77	0.735	0.765	0.717	0.621	0.628	0.522	0.284	–	0.336	0.549	0.471	0.509	0.546	0.532
LC-2-ad	0.489	0.542	0.508	0.507	0.484	0.967	1.03	0.947	0.783	0.98	0.957	0.717	0.343	0.309	0.479	0.624	0.498	0.589	0.47	0.416
RERF-LC-KJ	0.768	0.714	0.846	0.69	0.696	0.972	0.968	0.891	0.835	0.95	0.88	0.746	0.462	0.43	0.347	0.37	0.543	0.418	0.487	0.461
EBC-1	–	–	–	–	–	0.203	0.208	0.219	0.201	0.221	–	–	–	–	–	–	–	–	–	–
HCC-15	0.632	0.552	0.597	0.624	0.594	0.874	0.546	0.9	0.803	0.79	0.618	0.464	0.349	–	0.395	0.495	0.478	0.446	0.431	0.426
NCI-H1563	0.472	0.476	0.489	0.435	0.513	1.05	1.09	1.09	0.867	0.853	0.447	0.452	0.343	0.461	0.456	0.668	0.76	0.67	0.703	0.657
COR-L 105	0.279	0.316	0.362	0.399	0.338	0.346	0.274	0.392	0.367	0.306	0.261	0.219	0.217	0.232	0.167	0.551	0.495	0.479	0.583	0.462
NCI-H596	0.679	0.608	0.555	–	0.668	1.1	1.07	1.04	1.1	0.983	0.682	0.611	0.495	0.469	0.546	0.709	0.713	0.704	0.787	0.736
LU99A	0.718	0.511	0.458	0.602	0.7	1.05	0.79	0.888	0.809	0.749	0.573	0.467	0.352	0.367	0.388	0.839	0.687	0.882	0.762	0.766
NCI-H1666	0.777	0.685	0.742	0.783	0.865	0.683	0.381	0.638	0.444	0.443	0.788	0.617	0.442	0.28	0.278	0.568	0.62	0.598	0.539	0.49
NCI-H2170	0.547	0.631	0.487	0.505	0.475	0.273	0.223	0.278	0.324	0.274	0.553	0.676	0.665	0.515	0.443	0.449	0.439	0.426	0.377	0.413
NCI-H522	0.849	0.819	0.88	0.866	0.923	–	–	–	–	–	0.735	0.797	0.656	0.614	0.667	0.608	0.621	0.6	0.574	0.559
LCLC-97TM1	0.881	0.765	0.668	0.816	0.897	1.04	0.594	0.857	0.867	1	0.969	0.929	0.673	0.99	0.811	0.445	0.515	0.439	0.36	0.53

Cell Line	relative viability ([1]; first compound 0.04 µM)	relative viability ([1]; first compound 0.1265 µM)	relative viability ([1]; first compound 0.4 µM)	relative viability ([1]; first compound 1.265 µM)	relative viability ([1]; first compound 4 µM)	relative viability ([2]; first compound 0.25 µM)	relative viability ([2]; first compound 0.7906 µM)	relative viability ([2]; first compound 2.5 µM)	relative viability ([2]; first compound 7.906 µM)	relative viability ([2]; first compound 25 µM)	relative viability ([3]; first compound 0.04 µM)	relative viability ([3]; first compound 0.1265 µM)	relative viability ([3]; first compound 0.4 µM)	relative viability ([3]; first compound 1.265 µM)	relative viability ([3]; first compound 4 µM)	relative viability ([4]; first compound 0.25 µM)	relative viability ([4]; first compound 0.7906 µM)	relative viability ([4]; first compound 2.5 µM)	relative viability ([4]; first compound 7.906 µM)	relative viability ([4]; first compound 25 µM)
NCI-H1299	–	–	–	–	–	0.984	0.973	0.977	1.01	1.12	–	–	–	–	–	–	–	–	–	–
NCI-H322M	0.261	0.257	0.258	0.239	0.249	0.569	0.831	0.929	0.683	0.705	0.255	0.216	0.231	0.274	0.259	0.792	0.623	0.777	0.963	0.628
NCI-H1395	0.441	0.405	0.371	0.442	0.384	0.947	–	1.08	0.934	0.853	0.398	0.37	0.342	0.317	0.345	0.41	0.421	0.435	0.463	0.412
NCI-H2009	0.269	0.309	0.298	0.249	0.275	0.883	0.469	1.02	0.847	0.993	0.266	0.144	0.136	0.148	0.152	0.485	0.573	0.522	0.411	0.526
NCI-H1651	0.542	0.294	0.403	0.386	0.368	0.882	0.832	0.938	0.711	0.824	0.499	0.369	0.229	0.247	0.267	0.332	0.34	0.324	0.336	0.319
HARA	0.371	0.337	0.19	–	0.203	0.836	0.747	0.742	0.652	0.665	0.243	0.213	0.124	0.0816	0.074	0.536	–	0.467	0.475	0.36
NCI-H1944	0.228	0.217	0.211	0.208	0.22	0.904	–	0.774	0.747	0.486	0.192	0.154	0.138	0.157	0.139	0.206	0.227	0.186	0.169	0.167
NCI-H2405	0.158	0.189	0.207	–	0.216	1.11	1.12	1.02	1.05	1.22	0.239	0.166	0.158	0.135	0.139	0.395	0.392	0.392	0.346	0.37
Calu-6	–	–	–	–	–	1.11	1.12	1.06	1.01	0.983	–	–	–	–	–	–	–	–	–	–
NCI-H1703	–	–	–	–	–	1.11	1.23	1.29	0.768	0.826	–	–	–	–	–	–	–	–	–	–
NCI-H2342	0.317	0.316	0.327	0.32	0.338	–	–	–	–	–	0.332	0.319	0.294	0.289	0.302	0.724	0.559	0.658	0.37	0.48
ChaGo-K-1	0.654	0.635	0.555	0.615	0.492	–	–	–	–	–	0.592	0.442	0.365	0.394	0.395	0.485	0.428	0.49	0.423	0.324
NCI-H1623	0.455	0.501	0.548	0.564	0.562	–	–	–	–	–	0.655	0.797	0.529	0.543	0.606	0.562	0.383	0.577	0.459	0.48
HCC-44	–	–	–	–	–	1.07	1.12	1.05	1.04	1.28	–	–	–	–	–	0.165	0.102	0.126	0.213	0.314
SW 900	0.601	0.544	0.571	0.603	0.448	–	–	–	–	–	0.413	0.456	0.312	0.42	0.41	0.732	0.654	0.488	0.597	0.629
NCI-H441	0.761	0.545	0.581	0.668	0.605	–	–	–	–	–	0.635	0.683	–	0.685	0.549	0.763	0.876	0.782	0.718	0.628
IA-LM	–	–	–	–	–	0.676	0.851	1.09	0.431	0.608	–	–	–	–	–	–	–	–	–	–
A549	–	–	–	–	–	0.914	1.15	1.04	1.08	0.598	–	–	–	–	–	0.129	0.138	0.159	0.189	0.235
LCLC-103H	0.473	0.444	0.414	0.483	0.474	–	–	–	–	–	0.532	0.37	0.134	0.227	0.178	0.342	0.345	0.324	0.387	0.358
